Here are results for 38 compounds from patent publication US20230416248A1, “COMPOUNDS AND USES THEREOF” (Foghorn Therapeutics Inc., priority 2020, published 2023).

In one test the target is T1, BRM (Homo sapiens, UniProt P51531).
T1 construct: made in house; host or cells: High Five insect cells
Kind of test: ATPase catalytic activity of BRM, ADP-Glo in vitro biochemical assay. The conditions noted are these: for IC50: ATPase catalytic activity, ADP-Glo, 30 nM BRM, 400 μM ATP; for Ratio*: ratio of BRG1 IC50 to BRM IC50. In outline:
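ADP-Glo luminescence, after depletion of leftover ATP and conversion of ADP, reported the activity. The 1 h room-temperature reaction held 400 μM ATP, 20 nM salmon sperm DNA and 30 nM BRM in 20 mM Tris pH 8, 20 mM MgCl2, 50 mM NaCl, 0.1% Tween-20, 1 mM DTT.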
A general note: In ADP-Glo the light output rises with the ADP produced.

Another test addresses T2, BRG-1 (Homo sapiens, UniProt P51532).
T2 construct: made in house; host or cells: High Five insect cells
Kind of test: ATPase catalytic activity of BRG-1, ADP-Glo in vitro biochemical assay. The conditions noted are these: ATPase catalytic activity, ADP-Glo; 30 nM BRG-1, 400 μM ATP; read-out: BRG1 IC50. Put shortly:
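Once the ATPase reaction finished, leftover ATP was depleted over 40 minutes at room temperature. Generated ADP was next turned back into ATP during a 60-minute room-temperature step. Luciferase-derived light was then measured.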

T2 sequence (P51532 whole entry): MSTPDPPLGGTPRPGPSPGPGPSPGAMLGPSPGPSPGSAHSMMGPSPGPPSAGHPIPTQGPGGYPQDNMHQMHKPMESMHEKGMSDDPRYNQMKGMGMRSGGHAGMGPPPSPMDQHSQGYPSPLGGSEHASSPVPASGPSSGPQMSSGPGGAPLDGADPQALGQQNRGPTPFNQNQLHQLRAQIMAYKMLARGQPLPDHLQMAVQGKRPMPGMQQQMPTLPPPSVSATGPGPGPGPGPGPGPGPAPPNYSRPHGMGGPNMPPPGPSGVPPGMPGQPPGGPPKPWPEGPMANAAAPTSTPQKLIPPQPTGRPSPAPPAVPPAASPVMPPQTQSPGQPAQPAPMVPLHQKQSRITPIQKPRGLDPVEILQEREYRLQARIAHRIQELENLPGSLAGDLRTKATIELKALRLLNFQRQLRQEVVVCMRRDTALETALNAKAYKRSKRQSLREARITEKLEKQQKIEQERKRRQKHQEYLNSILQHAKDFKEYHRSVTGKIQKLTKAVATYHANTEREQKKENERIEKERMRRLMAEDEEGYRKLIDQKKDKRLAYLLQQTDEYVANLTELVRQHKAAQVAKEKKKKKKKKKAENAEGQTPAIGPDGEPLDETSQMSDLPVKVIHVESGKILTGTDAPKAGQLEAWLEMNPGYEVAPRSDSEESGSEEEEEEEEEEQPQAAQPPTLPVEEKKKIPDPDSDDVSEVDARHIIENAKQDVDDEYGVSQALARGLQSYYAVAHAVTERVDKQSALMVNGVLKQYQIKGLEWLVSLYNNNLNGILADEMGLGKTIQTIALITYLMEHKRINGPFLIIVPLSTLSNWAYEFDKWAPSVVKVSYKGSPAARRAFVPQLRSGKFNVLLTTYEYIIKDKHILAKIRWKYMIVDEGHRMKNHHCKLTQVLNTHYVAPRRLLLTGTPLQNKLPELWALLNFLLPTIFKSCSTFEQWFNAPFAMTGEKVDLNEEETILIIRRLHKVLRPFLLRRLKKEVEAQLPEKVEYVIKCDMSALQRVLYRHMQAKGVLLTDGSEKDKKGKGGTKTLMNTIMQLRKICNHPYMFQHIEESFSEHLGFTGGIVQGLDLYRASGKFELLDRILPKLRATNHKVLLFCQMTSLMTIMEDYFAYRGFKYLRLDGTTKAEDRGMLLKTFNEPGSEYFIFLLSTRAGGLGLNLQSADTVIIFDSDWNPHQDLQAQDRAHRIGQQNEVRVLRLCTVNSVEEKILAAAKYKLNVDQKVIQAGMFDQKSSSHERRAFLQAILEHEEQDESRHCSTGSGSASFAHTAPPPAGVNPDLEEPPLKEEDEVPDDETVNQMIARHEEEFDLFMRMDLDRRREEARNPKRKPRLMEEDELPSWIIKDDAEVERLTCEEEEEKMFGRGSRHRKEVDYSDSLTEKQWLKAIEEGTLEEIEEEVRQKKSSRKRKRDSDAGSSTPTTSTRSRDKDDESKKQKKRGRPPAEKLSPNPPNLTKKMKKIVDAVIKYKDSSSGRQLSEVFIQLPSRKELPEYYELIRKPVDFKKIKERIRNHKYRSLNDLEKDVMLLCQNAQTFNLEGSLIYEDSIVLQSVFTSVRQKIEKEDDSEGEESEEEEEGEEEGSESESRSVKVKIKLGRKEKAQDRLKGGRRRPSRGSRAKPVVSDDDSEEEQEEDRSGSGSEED
T1 sequence (P51531 whole entry): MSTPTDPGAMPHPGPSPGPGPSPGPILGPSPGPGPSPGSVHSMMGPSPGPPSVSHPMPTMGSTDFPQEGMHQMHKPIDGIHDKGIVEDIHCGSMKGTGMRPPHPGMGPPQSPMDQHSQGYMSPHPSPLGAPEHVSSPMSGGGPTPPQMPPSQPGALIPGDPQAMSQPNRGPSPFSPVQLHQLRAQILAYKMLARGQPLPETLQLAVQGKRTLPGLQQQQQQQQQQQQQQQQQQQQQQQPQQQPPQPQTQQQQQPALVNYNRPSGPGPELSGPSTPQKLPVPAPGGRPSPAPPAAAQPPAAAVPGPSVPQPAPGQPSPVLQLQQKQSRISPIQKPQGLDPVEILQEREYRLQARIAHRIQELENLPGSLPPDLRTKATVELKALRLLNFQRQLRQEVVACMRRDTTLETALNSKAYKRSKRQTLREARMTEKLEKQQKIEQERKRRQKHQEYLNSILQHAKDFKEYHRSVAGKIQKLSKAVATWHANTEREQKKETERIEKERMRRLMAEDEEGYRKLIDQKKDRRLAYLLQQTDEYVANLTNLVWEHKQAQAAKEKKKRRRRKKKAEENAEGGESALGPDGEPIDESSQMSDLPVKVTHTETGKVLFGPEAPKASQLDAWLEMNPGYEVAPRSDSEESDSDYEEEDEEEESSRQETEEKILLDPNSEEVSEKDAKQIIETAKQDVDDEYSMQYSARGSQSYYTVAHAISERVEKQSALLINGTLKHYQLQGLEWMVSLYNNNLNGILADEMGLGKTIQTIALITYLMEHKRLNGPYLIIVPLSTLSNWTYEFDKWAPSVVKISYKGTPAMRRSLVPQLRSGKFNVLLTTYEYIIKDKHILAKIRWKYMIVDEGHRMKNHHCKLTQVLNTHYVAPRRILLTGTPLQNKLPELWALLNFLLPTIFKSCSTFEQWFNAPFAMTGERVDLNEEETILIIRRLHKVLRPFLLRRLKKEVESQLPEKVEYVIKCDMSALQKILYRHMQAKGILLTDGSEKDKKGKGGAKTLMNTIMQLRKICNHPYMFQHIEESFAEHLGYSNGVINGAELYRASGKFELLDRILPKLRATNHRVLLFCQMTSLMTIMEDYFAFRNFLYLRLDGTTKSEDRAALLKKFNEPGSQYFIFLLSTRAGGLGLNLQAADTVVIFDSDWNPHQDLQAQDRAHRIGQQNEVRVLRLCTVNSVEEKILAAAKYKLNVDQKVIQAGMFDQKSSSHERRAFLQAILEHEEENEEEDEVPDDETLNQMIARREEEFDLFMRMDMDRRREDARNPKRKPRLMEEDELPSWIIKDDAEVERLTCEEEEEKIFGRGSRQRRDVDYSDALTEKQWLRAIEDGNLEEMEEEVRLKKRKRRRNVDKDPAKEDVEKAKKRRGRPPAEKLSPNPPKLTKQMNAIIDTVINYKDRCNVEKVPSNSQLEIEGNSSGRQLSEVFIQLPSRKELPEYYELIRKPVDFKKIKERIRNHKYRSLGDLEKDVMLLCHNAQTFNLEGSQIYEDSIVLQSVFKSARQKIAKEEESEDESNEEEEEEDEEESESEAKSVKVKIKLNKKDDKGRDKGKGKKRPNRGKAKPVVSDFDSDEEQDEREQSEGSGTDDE

As usually defined, the IC50 is the midpoint of a concentration-inhibition curve. As for `CCO[C@H]1CCS(=O)(=O)c2cc(C(=O)NCc3cc4nc(-c5cccc(N6C[C@@H](C)O[C@@H](C)C6)n5)ccc4cn3)ccc2C1` [Compound 482], on BRM, it took 23.1 nM to reach half-maximal inhibition (IC50) and the “Ratio*” value was 10.09. Besides, on BRG-1, the half-maximal inhibitory concentration (IC50) came out at 234 nM.

For `C[C@@H]1CN(c2cccc(-c3ccc4cnc(CNC(=O)c5ccc6c(c5)S(=O)(=O)CC[C@@H]6C)cc4n3)n2)C[C@H](C)O1` [Compound 483], the IC50 was 43.8 nM at BRM and 1230 nM on BRG-1. Besides, at BRM, the “Ratio*” value was determined as 27.99.

With `C[C@@H]1CN(c2cccc(-c3ccc4cnc(CNC(=O)c5cc(Cl)c6c(c5)S(=O)(=O)[C@@H](C)CCO6)cc4n3)n2)C[C@H](C)O1` [Compound 484], on BRM, the IC50 was 13.7 nM and the “Ratio*” value is given as 21.16. Besides, the IC50 at BRG-1 was 289 nM.

Take `CCOC1CCS(=O)(=O)c2cc(C(=O)NCc3cc4nc(-c5cccc(N6CC(C)OC(C)C6)n5)ccc4cn3)ccc2C1` (stereo not drawn) [Compound 485]: at BRM, half-maximal inhibition (IC50) was put at 13 nM and the “Ratio*” value amounted to 14.45. Besides, the IC50 on BRG-1 is 189 nM.

For `COc1cccc(-c2ccc3cnc(CNC(=O)c4ccc5c(c4)S(=O)(=O)CCOC5)cc3n2)n1` [Compound 487], on BRM, 21.9 nM corresponded to half-maximal inhibition (IC50) and the “Ratio*” value is 15.66. For the same compound, the 50% inhibitory concentration (IC50) on BRG-1 was 344 nM.

In the case of `CN1CCCc2ccc(-c3ccc4cnc(CNC(=O)c5ccc6c(c5)S(=O)(=O)CCOC6)cc4n3)nc21` [Compound 488], on BRM, the IC50 was determined as 12.7 nM and the “Ratio*” value is given as 7.17. At BRG-1, the IC50 came to 90.8 nM.

Turning to `CCOc1nc(-c2ccc3cnc(CNC(=O)c4ccc5c(c4)S(=O)(=O)CCOC5)cc3n2)ccc1C(F)F` [Compound 489], on BRM, the IC50 turned out to be 15.9 nM and the “Ratio*” value is 11.37. For the same compound, at BRG-1, the IC50 was determined as 181 nM.

Consider `C[C@@H]1CN(c2cccc(-c3ccc4cnc(CNC(=O)c5ccc6c(c5)S(=O)(=O)CC[C@H]6C)cc4n3)n2)C[C@H](C)O1` [Compound 490], for which the figures for the IC50 on BRM and at BRG-1 were 56.1 nM and 787 nM, respectively. Moreover, the “Ratio*” value on BRM was determined as 14.02.

As for `Cc1cnc2c(c1)OCCN2c1ccc2cnc(CNC(=O)c3ccc4c(c3)S(=O)(=O)CCOC4)cc2n1` [Compound 491], at BRM, the IC50 came to 5.8 nM and the “Ratio*” value came to 10.83. Also, on BRG-1, the IC50 worked out at 62.8 nM.

Consider `COc1cccc2c1CCCN2c1ccc2cnc(CNC(=O)c3ccc4c(c3)S(=O)(=O)CCOC4)cc2n1` [Compound 492], for which the IC50 against BRM amounted to 4.4 nM; at BRG-1 it was 19.1 nM. Further, the “Ratio*” value on BRM is reported as 4.38.

For `CCOc1nc(-c2ccc3cnc(CNC(=O)c4ccc5c(c4)S(=O)(=O)CCOC5)cc3n2)ccc1Cl` [Compound 493], the results for the IC50 at BRM and on BRG-1 were 179 nM and 921 nM, respectively. Besides, the “Ratio*” value at BRM was 5.15.

On to `C[C@@H]1CCS(=O)(=O)c2cc(C(=O)NCc3cc4nc(-c5cccc(N6C[C@@H](C)O[C@@H](C)C6)n5)ccc4cn3)cc(F)c2O1` [Compound 494], for which the figures for the IC50 on BRM and at BRG-1 were 22.4 nM and 98.5 nM, respectively. Moreover, at BRM, the “Ratio*” value was 4.39.

On to `C[C@@H]1CN(c2cccc(-c3ccc4cnc(CNC(=O)c5cc(F)c6c(c5)S(=O)(=O)CC[C@H](C)O6)cc4n3)n2)C[C@H](C)O1` [Compound 495], for which the IC50 at BRM was 63.1 nM; on BRG-1 it was 981 nM. Moreover, at BRM, the “Ratio*” value was found to be 15.54.

For `COC1CCN(c2ccc3cnc(CNC(=O)c4ccc5c(c4)S(=O)(=O)CCOC5)cc3n2)c2ncccc21` (stereo not drawn) [Compound 496], at BRM, 157 nM corresponded to half-maximal inhibition (IC50) and the “Ratio*” value is listed as 15.21. Moreover, the IC50 at BRG-1 came to 2390 nM.

`CCOc1nc(-c2ccc3cnc(CNC(=O)c4ccc5c(c4)S(=O)(=O)[C@@H](C)COC5)cc3n2)ccc1F` [Compound 497]: on BRM, the IC50 was determined as 25.9 nM and the “Ratio*” value was determined as 15.92. Besides, the IC50 on BRG-1 came to 411 nM.

For `CC1CN(c2cccc(-c3ccc4cnc(CNC(=O)c5ccc6c(c5)S(=O)(=O)C(C)CN6C)cc4n3)n2)CC(C)O1` (stereo not drawn) [Compound 498], the IC50 was 26.6 nM at BRM and 439 nM at BRG-1. Also, the “Ratio*” value on BRM was found to be 16.52.

Take `O=C(NCc1cc2nc(-c3ccc4c(n3)OCCC4)ccc2cn1)c1ccc2c(c1)S(=O)(=O)CCOC2` [Compound 499]: on BRM, the IC50 came to 290 nM and the “Ratio*” value turned out to be 4.12. Further, the IC50 on BRG-1 was 1190 nM.

With `C[C@@H]1CN(c2cccc(-c3ccc4cnc(CNC(=O)c5ccc6c(c5)S(=O)(=O)[C@@H](C)C6)cc4n3)n2)C[C@H](C)O1` [Compound 500], on BRM, the IC50 came out at 208 nM and the “Ratio*” value is 16.91. For the same compound, at BRG-1, the 50% inhibitory concentration (IC50) turned out to be 3520 nM.

For `CCOc1nc(-c2ccc3cnc(CNC(=O)c4ccc5c(c4)S(=O)(=O)CCOC5)cc3n2)ccc1C` [Compound 501], on BRM, the IC50 came to 9.9 nM and the “Ratio*” value came to 13.59. At BRG-1, the IC50 stood at 135 nM.

Take `C[C@@H]1CN(c2cccc(-c3ccc4cnc(CNC(=O)c5ccc6c(c5)S(=O)(=O)[C@H](C)C6)cc4n3)n2)C[C@H](C)O1` [Compound 502]: on BRM, the IC50 came out at 8 nM and the “Ratio*” value worked out at 14.99. Besides, the IC50 on BRG-1 was 120 nM.

Take `O=C(NCc1cc2nc(N3CCOc4cc(C5CC5)cnc43)ccc2cn1)c1ccc2c(c1)S(=O)(=O)CCOC2` [Compound 503]: the IC50 against BRM amounted to 5.8 nM; on BRG-1 it was 73.7 nM. The “Ratio*” value on BRM turned out to be 12.62.

For the compound `CC1CCN(c2ccc3cnc(CNC(=O)c4ccc5c(c4)S(=O)(=O)CCOC5)cc3n2)c2ncccc21` (stereo not drawn) [Compound 504], on BRM, the IC50 is 28.6 nM and the “Ratio*” value is 7.45. Besides, the IC50 on BRG-1 is 213 nM.

Consider `C[C@@H]1CN(c2cccc(-c3ccc4cnc(CNC(=O)c5cc(Cl)c6c(c5)S(=O)(=O)CC[C@H](C)O6)cc4n3)n2)C[C@H](C)O1` [Compound 506], for which the IC50 on BRM was found to be 49.2 nM; on BRG-1, 645 nM. For the same compound, the “Ratio*” value at BRM is listed as 13.12.

On to `COC[C@H](NC(=O)c1ccc2c(c1)S(=O)(=O)CCOC2)c1cc2nc(-c3cccc(C4CC4)n3)ccc2cn1` [Compound 507], for which, at BRM, the midpoint of inhibition, the IC50, lay at 387 nM and the “Ratio*” value was 6.28. Further, the IC50 at BRG-1 worked out at 2430 nM.

With `O=C(NCc1cc2nc(N3CCOc4cc(C(F)F)cnc43)ccc2cn1)c1ccc2c(c1)S(=O)(=O)CCOC2` [Compound 508], at BRM, the IC50 turned out to be 13.1 nM and the “Ratio*” value came to 10.53. The IC50 at BRG-1 worked out at 137 nM.

As to `C[C@@H]1CN(c2cccc(-c3ccc4cnc(CNC(=O)c5cnc6c(c5)S(=O)(=O)[C@@H](C)CCC6)cc4n3)n2)C[C@H](C)O1` [Compound 509], on BRM, it took 6.4 nM to reach half-maximal inhibition (IC50) and the “Ratio*” value was determined as 4.21. The IC50 at BRG-1 was 26.9 nM.

As for `COCCc1cnc2c(c1)CCCN2c1ccc2cnc(CNC(=O)c3ccc4c(c3)S(=O)(=O)CCOC4)cc2n1` [Compound 510], the IC50 on BRM is 13.9 nM; on BRG-1, 142 nM. Further, the “Ratio*” value on BRM is on record as 10.20.

Turning to `CN1C(=O)CN(c2ccc3cnc(CNC(=O)c4ccc5c(c4)S(=O)(=O)CCOC5)cc3n2)c2ccccc21` [Compound 511], on BRM, the midpoint of inhibition, the IC50, lay at 329 nM and the “Ratio*” value came out at 2.54. Moreover, the IC50 on BRG-1 amounted to 835 nM.

For the compound `CN1CCN(c2ccc3cnc(CNC(=O)c4ccc5c(c4)S(=O)(=O)CCOC5)cc3n2)c2ccccc21` [Compound 512], at BRM, the IC50 was 28.7 nM and the “Ratio*” value is 7.58. Moreover, the IC50 at BRG-1 amounted to 217 nM.

Consider `O=C(NCc1cc2nc(N3CCCc4ccc(Cl)nc43)ccc2cn1)c1ccc2c(c1)S(=O)(=O)CCOC2` [Compound 513], for which the IC50 on BRM came out at 16.9 nM; at BRG-1, 164 nM. Further, on BRM, the “Ratio*” value turned out to be 9.70.

With `Cc1cnc2c(c1)CCCN2c1ccc2cnc(CNC(=O)c3ccc4c(c3)S(=O)(=O)CCCO4)cc2n1` [Compound 514], the IC50 against BRM amounted to 58.9 nM; at BRG-1 it was 465 nM. Further, at BRM, the “Ratio*” value is recorded as 7.89.

With `C[C@@H]1CN(c2cccc(-c3ccc4cnc(CNC(=O)c5cnc6c(c5)S(=O)(=O)[C@H](C)CCC6)cc4n3)n2)C[C@H](C)O1` [Compound 515], on BRM, 231 nM corresponded to half-maximal inhibition (IC50) and the “Ratio*” value stood at 11.23. Further, at BRG-1, the IC50 came to 2600 nM.

For `C[C@@H]1CN(c2cccc(-c3ccc4cnc(CNC(=O)c5cc(F)c6c(c5)S(=O)(=O)CCO[C@@H]6C)cc4n3)n2)C[C@H](C)O1` [Compound 516], on BRM, the IC50 was 12.2 nM and the “Ratio*” value stood at 6.98. Further, the concentration for half-maximal inhibition (IC50) on BRG-1 is 85 nM.

Take `COc1nc(-c2ccc3cnc(CNC(=O)c4ccc5c(c4)S(=O)(=O)[C@@H](C)COC5)cc3n2)ccc1C(F)F` [Compound 519]: the values for the IC50 at BRM and on BRG-1 were 13.3 nM and 144 nM, respectively. Further, the “Ratio*” value on BRM came to 10.89.

For the compound `O=C(NCc1cc2nc(N3CCOc4cc(C(F)F)ccc43)ccc2cn1)c1ccc2c(c1)S(=O)(=O)CCOC2` [Compound 520], at BRM, it took 21.4 nM to reach half-maximal inhibition (IC50) and the “Ratio*” value amounted to 12.29. Besides, on BRG-1, the IC50 was determined as 263 nM.

As to `O=C(NCc1cc2nc(N3CCCc4c(C(F)F)ccnc43)ccc2cn1)c1ccc2c(c1)S(=O)(=O)CCOC2` [Compound 521], at BRM, the IC50 amounted to 59.7 nM and the “Ratio*” value worked out at 7.10. Moreover, on BRG-1, the IC50 was 424 nM.

In the case of `C[C@@H]1CN(c2cccc(-c3ccc4cnc(CNC(=O)c5cc(F)c6c(c5)S(=O)(=O)CCO[C@H]6C)cc4n3)n2)C[C@H](C)O1` [Compound 522], the IC50 at BRM was determined as 13.8 nM; on BRG-1, 62.1 nM. At BRM, the “Ratio*” value turned out to be 4.48.

For `CC1COCc2ccc(C(=O)NCc3cc4nc(N5CCOc6cccnc65)ccc4cn3)cc2S1(=O)=O` (stereo not drawn) [Compound 523], the IC50 against BRM turned out to be 11.6 nM; on BRG-1, 181 nM. Moreover, the “Ratio*” value at BRM came out at 15.53.
